Read-outs that look alike come from different tables or passages of the source.
Legend:
[1] = biological target: T1, PDGFRB(JMplus) (PDGFR-β) (Homo sapiens, UniProt P09619); test: Phage-display competitive binding assay, PDGFRB(JMplus)
T1 construct: PDGFRB(JMplus)
Method: (§1) Briefly, T7 phage displaying human PDGFR-β were incubated with an affinity matrix coated with known PDGFR-β inhibitor in the presence of various concentrations of the soluble competitor molecules.

[2] = biological target: T2, PDGFRB(DKIN) (PDGFR-β) (Homo sapiens, UniProt P09619); test: Phage-display competitive binding assay, PDGFRB(DKIN)
T2 construct: PDGFRB(DKIN)
Method: The term “ND” represents non-determined values.
as §1

[3] = biological target: T3, PDGFRB(JMminus) (PDGFR-β) (Homo sapiens, UniProt P09619); test: Phage-display competitive binding assay, PDGFRB(JMminus)
T3 construct: PDGFRB(JMminus)
Method: as §1

[4] = T7 phage displaying human PDGFR-β, DKIN construct; read-out: Binding Assay: PDGFRB(DKIN)

T1 sequence (P09619 600-962 limits assumed): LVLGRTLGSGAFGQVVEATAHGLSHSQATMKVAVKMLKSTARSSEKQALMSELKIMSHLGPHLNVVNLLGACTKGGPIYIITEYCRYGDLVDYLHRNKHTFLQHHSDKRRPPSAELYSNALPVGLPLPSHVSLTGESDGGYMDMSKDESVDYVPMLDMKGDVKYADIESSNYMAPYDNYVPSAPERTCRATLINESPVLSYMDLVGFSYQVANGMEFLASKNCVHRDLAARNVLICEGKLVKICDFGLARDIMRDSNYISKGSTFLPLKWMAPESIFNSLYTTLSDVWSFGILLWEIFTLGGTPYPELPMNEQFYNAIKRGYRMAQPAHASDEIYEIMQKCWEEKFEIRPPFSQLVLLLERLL
T3 sequence (P09619 600-962 limits assumed): as above

SMILES | Kd [2, 4] | further results
CC(C)(C)c1cc(NC(=O)Nc2ccc(NC(=O)c3ncccc3O)cc2)no1 [Compound N134] |  | Kd [1]: < 0.1 µM; Kd ([2]; read-out: Binding Assay: PDGFRB(DKIN); T7 phage displaying human PDGFR-β, DKIN construct): < 0.1 µM; Kd [3]: < 0.1 µM
CC(C)(C)c1cc(NC(=O)Nc2ccc(NC(=O)c3ccccn3)cc2)no1 [Compound N188] | < 0.1 µM | Kd ([1]; T7 phage displaying human PDGFR-β, JMplus construct, read-out: Binding Assay: PDGFRB(JMplus)): < 0.1 µM; Kd ([3]; T7 phage displaying human PDGFR-β, JMminus construct, read-out: Binding Assay: PDGFRB(JMminus)): < 0.1 µM
O=C(Nc1ccc(Cl)cc1)Nc1ccno1 [Compound Z15] | 1 to 10 µM | 
CC(C)CCOC(=O)c1nnsc1NC(=O)Nc1ccc(Br)cc1 [Compound Z36] | > 10 µM | 
Cc1c(NC(=O)Nc2cc(C(C)(C)C)on2)c(=O)n(-c2ccccc2)n1C [Compound Z45] | > 10 µM | 
O=C(Nc1ccc(Cl)cc1)Nc1ccc(-n2nc(Br)c(Br)c2Br)cc1 [Compound Z49] | < 0.1 µM | 
C=C/C(=C\C=C\Cl)NC(=O)Nc1ccc(C(=O)OCCOC)cc1 [Compound Z54] | 1 to 10 µM | 
Cc1sc(NC(=O)Nc2ccc(Cl)cc2)c(C(N)=O)c1C [Compound Z58] | > 10 µM | 
O=C(Nc1ccc(Br)cc1)Nc1cc(C(F)(F)F)cc(Cl)n1 [Compound Z72] | > 10 µM | 

The next lines start with results.

Kd [2, 4] | SMILES | further results
> 10 µM | CC(=O)NS(=O)(=O)c1ccc(NC(=O)Nc2cc(C(C)(C)C)on2)cc1 [Compound V4] | 
0.1 to 1 µM | Cc1ccc(NC(=O)Nc2cc(C(F)(F)F)cc(Cl)n2)cc1 [Compound W1] | 
0.1 to 1 µM | Cn1c(SCC(=O)Nc2ccc(NC(=O)Nc3cc(C(C)(C)C)on3)cc2)nnc1-c1cccn(Cc2ccccc2)c1=O [Compound Z47] | 
> 10 µM | NC(=O)c1c(NC(=O)Nc2ccc(Cl)c(Cl)c2)sc2c1CCCC2 [Compound Z56] | 
0.1 to 1 µM | O=C(Nc1ccccc1)Nc1ccc(-n2cnc(Cl)c2Cl)cc1 [Compound Z65] | 
0.1 to 1 µM | COc1ccc(NC(=O)Nc2cc(C(F)(F)F)cc(Cl)n2)cc1 [Compound Z71] | 
> 10 µM | O=C(Nc1ccc(Cl)cc1)Nc1cc(C(F)(F)F)cc(Cl)n1 [Compound Z76] | 
